Test results as given in patent US20180111991A1, “MODULATORS OF ACTIVIN AND METHODS FOR MODULATING IMMUNE RESPONSES AND T FOLLICULAR HELPER CELLS” (LA JOLLA INSTITUTE FOR ALLERGY AND IMMUNOLOGY, priority 2014, published 2018).
“Also recorded” adds a separate entry of the source.

Tests used:
Assay type in all cases: cell-based
human naïve CD4 T cells [1] = assay: CCR7 expression by FACS on in vitro differentiated cells; conditions: for CCR7 downregulation (CCR7+CXCR5+ cells): with or without IL-12 (FIG. 10); for CCR7 expression (MFI): activated CD4 T cells, day 5
Method: (§1) For surface staining, primary-staining panels used for phenotypic analysis or for cell sorting known in the art were used. For the intranuclear staining: cells were treated with the FoxP3 Fixation/Permeabilization kit (eBioscience) and stained in Permeabilization buffer (eBioscience). For cytokine staining: day 3 or day 5 in vitro differentiated cells (specified in the main text or in figure legends) cells were stimulated for 5 hours at 37° C. with Phorbol 12-myristate 13-acetate (PMA, 25 ng/ml) and Ionomycin (1 μg/ml) in the presence of Brefeldin A (5 μg/ml). Cells were fixed with PBS 2% FBS, 1% PFA and permeabilized with PBS 2% FBS, 0.5% Saponin (from quillaja bark, Sigma-Aldrich). Samples were analyzed on a LSR Fortessa Cell Analyzer (BD, Bioscience). Flow cytometry data were analyzed with FlowJo (Tree Star). For cell sorting, cells were sorted using sorted using a FACS Aria (BD, Bioscience).
(§2) Unless differently specified, naïve CD4^+ T cells were enriched from PBMCs by magnetic bead negative selection with the Naïve CD4^+ T Cell Isolation Kit (Stem Cell Technologies). Purity (CD4^+CD45RA^+) was 90% or higher. Cells (7.5×10^4 cells/well) were activated by Dynabeads Human T-Activator CD3/CD28 (2 μl/well, Life Technologies) and cultured with recombinant human/mouse/rat activin A (50 ng/ml or 100 ng/ml), recombinant human IL-12 (5 ng/ml), recombinant human TGFβ (1 ng/ml), recombinant human IL-23 (10 ng/ml) or recombinant human IL-35 (10 ng/ml) in the presence of and recombinant human IL-7 (4 ng/ml) in AIM-V medium (Life Technologies). All cytokines were from R&D System and Peprotech. The 14 kDa mature human beta A chain of human activin A shares 100% amino acid sequence identity with bovine, feline, mouse, porcine, and rat beta A. Phenotype was quantified after 3 or 5 days, as specified in the main text of Figure legends. Similar results were obtained when using Treg-depleted FACS sorted naïve CD4 T cells, in which cells were sorted from total PBMCs by flow cytometry as CD19^−CD8^−CD14^−CD16^− CD4^+CD45RO^−CD25^− cells. For experiments quantifying supernatant CXCL13 concentration, cells were activated by plate-bound anti-human CD3 (5 μg/ml, BD) and ICOS-L (5 μg/ml, recombinant human B7-H2, R&D). CXCL13 concentrations were determined via human CXCL13 DuoSet ELISA (R&D) on supernatants harvested after 5 days of in vitro culture. For blocking experiments, cells were cultured with anti-activin A blocking mAb (5 μg/ml, clone 69403, R&D), anti-TGFβ mAb (100 μg/ml, clone 1D11.16.8, BioXcell), or equivalent concentration of mouse IgG1 isotype mAb (BioXcell). For blockade of IL-2, cells were cultured with anti-IL-2 blocking mAb (10 μg/ml, clone 5334, R&D) or mouse IgG1 isotype mAb (BioXcell).

human naïve CD4 T cells [2] = assay: BCL6 intranuclear expression by FACS on in vitro differentiated cells; conditions: for induction of Bcl6+CXCR5+ cells: titration with or without IL-12 (FIG. 11)
Method: as §1, §2

human naïve CD4 T cells [3] = assay: RNA sequencing and GSEA of in vitro differentiated CD4 T cells; conditions: for genes differentially upregulated, activin A+IL-12 versus TGFβ+IL-12: each cytokine combined with IL-12, RNA-seq day 3; for expression of bona fide GC Tfh signature genes (GSEA): activin A or activin A+IL-12 versus beads, IL-12
Method: Differentiation of naïve CD4^+ T cells with activin A and/or IL-12 was described above. Naïve CD4 T cells from 4 or more donors were cultured with the following conditions: beads only (beads), IL-12, activin A (100 ng/ml), activin A (100 ng/ml)+IL-12, TGFβ, TGFβ+IL-12. After 3 days of in vitro culture, live CD4^+ T cells were sorted by FACS. Total RNA was purified using miRNAeasy Mini kit (Qiagen). Standard quality control steps were included to determine total RNA quality using Agilent Bioanalyzer (RNA integrity number (RIN)>8.5; Agilent RNA 6000 Nano Kit, USA) and quantity using a nanoliter spectrophotometer (Nanodrop, Thermofisher, USA). For every sample, 500 ng of purified total RNA was prepared into mRNA libraries, according to manufacturer's instructions, using the Truseq Stranded mRNA Library Prep Kit (Illumina, RS-122-2103). The resulting libraries were deep sequenced, using the Illumina HiSeq2500 system in rapid run mode, to obtain between 6 to 7 millions of 50-bp length single-end reads per library.
The single-end reads that passed Illumina filters were filtered for reads aligning to tRNA, rRNA, adapter sequences, and spike-in controls. The reads were then aligned to UCSC hg19 reference genome using TopHat^55(v 1.4.1). DUST scores were calculated with PRINSEQ Lite^56 (v 0.20.3) and low-complexity reads (DUST >4) were removed from the BAM files. The alignment results were parsed via the SAMtools^57 to generate SAM files. Read counts to each genomic feature were obtained with the htseq-count program^58 (v 0.6.0) using the “union” option. After removing absent features (zero counts in all samples), the raw counts were converted to RPKM value followed by quantile normalization via R library ‘aroma.light’ ^59. Then the quantile normalized RPKM values were filtered by setting a cutoff value of 1 and analyzed with the Multiplot module in GenePattern suite (http://www.broadinstitute.org/cancer/software/genepattern/) to generate the Volcano, Heatmap and Expression plots. Meanwhile the filtered raw counts were imported to R/Bioconductor package DESeq2^60 (v 3.1) to normalize counts and identify differentially expressed genes among conditions.
The tonsil GC Tfh gene set was generated from previously published microarray data^38 and defined by genes with more than two-fold higher expression in GC-Tfh cells (CD4^+CD45RO^+PD-1^hiCXCR5^hi) compared to non-Tfh cells (CD4^+CD45RO^+PD-1^−CXCR5^−). […] The signal-to-noise metric was used for ranking the genes in the RNA-seq expression datasets and 10^5 cycles of permutations on the phenotype labels were performed to determine the normalized enrichment score (NES).

human naïve CD4 T cells [4] = assay: In vitro Tfh differentiation, PD-1 and CXCR5 expression by FACS
Method: as §1, §2

human naïve CD4 T cells [5] = assay: FoxP3 induction by FACS in in vitro differentiated cells; conditions: for FoxP3 expression (FoxP3+ cells): with or without IL-12, day 5
Method: as §1
Unless differently specified, naïve CD4^+ T cells were enriched from PBMCs by magnetic bead negative selection with the Naïve CD4^+ T Cell Isolation Kit (Stem Cell Technologies). Purity (CD4^+CD45RA^+) was 90% or higher. […] The 14 kDa mature human beta A chain of human activin A shares 100% amino acid sequence identity with bovine, feline, mouse, porcine, and rat beta A. Phenotype was quantified after 3 or 5 days, as specified in the main text of Figure legends. […] For experiments quantifying supernatant CXCL13 concentration, cells were activated by plate-bound anti-human CD3 (5 μg/ml, BD) and ICOS-L (5 μg/ml, recombinant human B7-H2, R&D). CXCL13 concentrations were determined via human CXCL13 DuoSet ELISA (R&D) on supernatants harvested after 5 days of in vitro culture. […]

[6] = activin A alone, anti CD3/CD28 coated beads

Substance: TGFβ
- CCR7 downregulation (CCR7+CXCR5+ cells) (human naïve CD4 T cells [1]): influence CCR7 downregulation
- induction of Bcl6+CXCR5+ cells (human naïve CD4 T cells [2]): No detectable induction of Bcl6
- genes differentially upregulated, activin A+IL-12 versus TGFβ+IL-12 (human naïve CD4 T cells [3]): 45 genes
- induction of CXCR5 and PD-1 expression (human naïve CD4 T cells [4]; TGFβ with IL-12, serum free media): can synergize with IL-12 to induce CXCR5 and PD-1 expression
- FoxP3 expression (FoxP3+ cells) (human naïve CD4 T cells [5]): induce high FoxP3 expression; also recorded: preferentially induces FoxP3

Substance: activin A: commercial recombinant cytokine, homodimer of the INHBA gene product (inhibin beta A)
- CCR7 expression (MFI) (human naïve CD4 T cells [1]): decreased CCR7 expression
- CCR7 expression (MFI) (human naïve CD4 T cells [1]; listed as Activin A): sufficient to decrease CCR7 expression
- CCR7 downregulation (CCR7+CXCR5+ cells) (human naïve CD4 T cells [1]): influence CCR7 downregulation
- Bcl6 protein expression (human naïve CD4 T cells [2]; activin A with or without IL-12, FACS intranuclear staining (FIG. 8C)): significant expression of Bcl6, particularly when combined with IL-12
- BCL6 expression (human naïve CD4 T cells [2]; activin A+IL-12, day 5 (FIG. 2F)): a fraction of CD4 T cells differentiated with activin A+IL-12 increased expression of BCL6
- induction of Bcl6+CXCR5+ cells (human naïve CD4 T cells [2]): No detectable induction of Bcl6
- regulation of Tfh-signature genes LIF, LTA, PDCD1, TNF (human naïve CD4 T cells [3]; RNA-seq day 3, heat-map (FIG. 2K)): major factor regulating several Tfh-signature genes such as LIF, LTA, PDCD1, and TNF
- expression of bona fide GC Tfh signature genes (GSEA) (human naïve CD4 T cells [3]): imprinted with bona fide GC Tfh signature genes
- expression of bona fide GC Tfh signature genes (GSEA) (human naïve CD4 T cells [3]; listed as Activin A): contributed more than IL-12 to driving expression of bona fide GC Tfh associated genes
- genes selectively upregulated versus beads only (human naïve CD4 T cells [3]; activin A+IL-12, RNA-seq day 3): 116 genes
- genes suppressed versus beads only (human naïve CD4 T cells [3]; activin A+IL-12, RNA-seq day 3): 60 genes
- genes differentially upregulated, activin A+IL-12 versus TGFβ+IL-12 (human naïve CD4 T cells [3]): 35 genes
- CXCR5 expression (human naïve CD4 T cells [4]; [6]): some CXCR5 expression
- PD-1 induction (human naïve CD4 T cells [4]; [6]): massive PD-1 induction
- PD-1 and CXCR5 expression (PD1+CXCR5+ cells), additive or synergistic effect (human naïve CD4 T cells [4]; activin A combined with TGFβ): no synergy between TGFβ and activin A; also recorded: neither PD-1 nor CXCR5 expression changed when activin A and TGFβ were combined
- retention of CXCR5 and PD-1 expression over time (human naïve CD4 T cells [4]; activin A in combination with IL-12, monitored 0-10 days): retained
- capacity to regulate differentiation of PD-1+CXCR5+ cells, TGFβ compared with activin A (human naïve CD4 T cells [4]; combined with IL-12): induced similar levels of CXCR5 and PD-1 expression compared to TGFβ
- coexpression of PD-1 and CXCR5 (PD-1+CXCR5+ cells) (human naïve CD4 T cells [4]; in combination with IL-12): dramatic increase in the coexpression of PD-1 and CXCR5; also recorded: synergistic effect with IL-12
- PD-1 and CXCR5 expression on activated naïve CD4 T cells (human naïve CD4 T cells [4]; serum free conditions, activin A titration): induces both PD-1 and CXCR5 expression on activated naïve CD4 T cells in a dose dependent fashion
- FoxP3 upregulation (FoxP3+CXCR5+ cells) (human naïve CD4 T cells [5]; activin A with recombinant TGFβ): synergize in inducing FoxP3 upregulation
- FoxP3 expression (FoxP3+ cells) (human naïve CD4 T cells [5]): but not activin A was found to induce high FoxP3 expression; also recorded: less potent than TGFβ in driving the generation of FoxP3^+ cells; also recorded: induced less FoxP3 expression
